Results reported in patent publication US7794929B2, “Genomic screen for epigenetically silenced genes associated with cancer” (The Johns Hopkins University School of Medicine, priority 2002, dated 2010).

What was measured:
CRC cell lines = assay: RT-PCR expression analysis of methylation silenced genes in CRC cell lines after DAC treatment; type: cell-based, human
Experimental: Briefly, the treatment consisted of DAC (200 nM) for 48 hr, with drug and medium replaced at the 24 hr time point after beginning of treatment, followed by addition of TSA to a final concentration of 300 nM (from a 1.5 mM ethanol dissolved stock) and incubation for an additional 24 hr. Cells also were treated with DAC alone or TSA alone, or mock treated, using the same volumes of PBS and/or ethanol, and/or same amount of the drugs. Some colorectal cancer (CRC) cell lines also were treated for RT-PCR analysis to assess more robust levels of gene expression; treatment was with 5 μM DAC for 72 hr, with drug and medium being replaced every 24 hr. Total RNA was extracted using the TRIZOL Reagent (Gibco/BRL), and used for microarray analysis, cDNA subtraction and RT-PCR. DNase I (Ambion) treated total RNA (2 μg) was reverse transcribed for single stranded cDNA using oligo (dT)12-18 primer with [sequence] II reverse transcriptase (Gibco/BRL). PCR reactions were performed in a volume of 50 μl containing 1×PCR buffer (Gibco/BRL), 1.5 mM of MgCl2, 0.3 mM of dNTP, 0.25 μM of each primer and 2 U of Taq polymerase (Gibco/BRL). One hundred ng of cDNA was used for PCR amplification, and all of the genes were amplified with multiple cycle numbers (20 to 35 cycles) to determine appropriate conditions to obtain semi-quantitative differences in their expression levels. GAPDH PCR (25 and 28 cycles) was performed to ensure cDNA quality and loading accuracy. […] For RT-PCR, SFRP2 sense and antisense primers were designed for exons 2 and 3, respectively; SFRP4 sense and antisense primers were designed for exons 2 and 5, respectively; and SFRP5 sense and antisense primers were designed for exons 2 and 3, respectively.

RKO cells = assay: Subtraction microarray and semi-quantitative RT-PCR of gene expression after DAC and/or TSA treatment; type: cell-based, human; conditions: for expression of Group 2 genes (n=23) / expression of Group 1 genes (n=51): RKO cells, semi-quantitative RT-PCR; for expression of Group 2 genes (n=23): DAC alone or TSA alone; for expression of Group 1 genes (n=51): low dose DAC alone, TSA alone or combined
Experimental: RKO cells were treated with 5-aza-2′-deoxycytidine (DAC; Sigma) and/or trichostatin A (TSA; Wako) as described (Cameron et al., supra, 1999). Briefly, the treatment consisted of DAC (200 nM) for 48 hr, with drug and medium replaced at the 24 hr time point after beginning of treatment, followed by addition of TSA to a final concentration of 300 nM (from a 1.5 mM ethanol dissolved stock) and incubation for an additional 24 hr. Cells also were treated with DAC alone or TSA alone, or mock treated, using the same volumes of PBS and/or ethanol, and/or same amount of the drugs. Some colorectal cancer (CRC) cell lines also were treated for RT-PCR analysis to assess more robust levels of gene expression; treatment was with 5 μM DAC for 72 hr, with drug and medium being replaced every 24 hr. Total RNA was extracted using the TRIZOL Reagent (Gibco/BRL), and used for microarray analysis, cDNA subtraction and RT-PCR. Prior to cDNA subtraction, poly A RNA was isolated from total RNA using the MESSAGE MAKER Reagent Assembly kit (Gibco/BRL). cDNA subtraction was performed with the combination treated RKO cell line as the tester, and mock treated cells as the driver by using the PCR-Select™ cDNA subtraction kit (Clontech). Synthesized cDNA was digested with Rsa I, and tester cDNA was ligated to adaptors included in the kit. After hybridization, PCR amplification of the subtracted cDNA was performed using the ADVANTAGE cDNA PCR kit (Clontech). Microarray analysis was performed using the Mammalian GeneFilters Microarrays™ system (Research Genetics). Filters were generated for approximately 5,000 of the genes analyzed in the Johns Hopkins Comprehensive microarray core, and filters for an additional 5,000 genes were purchased (Human GeneFilters Microarrays™ Release II; Research Genetics). A total of 10,814 genes and ESTs were analyzed. Hybridization of the filters was performed according to manufacturer's recommendation. Briefly, 5 μg of total RNA was reverse transcribed and labeled using oligo (dT)12-18 primer and ^32dCTP with SUPERSCRIPT II reverse transcriptase (Gibco/BRL). Hybridization of the filters was allowed to proceed for 12 to 18 hr. Data was analyzed using the PSCAN program (National Institutes of Health). For subtraction-microarray analysis, the 2nd PCR product from cDNA subtraction was labeled with ^33P using the MULTIPRIME DNA labeling system (Amersham). Hybridization and data analysis were performed as described above. Microarray analysis was repeated independently at least three times for each condition, and results for probing the arrays with cDNA for total RNA from mock treated cells were compared to those for hybridizations with subtraction PCR products. DNase I (Ambion) treated total RNA (2 μg) was reverse transcribed for single stranded cDNA using oligo (dT)12-18 primer with SUPERSCRIPT II reverse transcriptase (Gibco/BRL). PCR reactions were performed in a volume of 50 μl containing 1×PCR buffer (Gibco/BRL), 1.5 mM of MgCl2, 0.3 mM of dNTP, 0.25 μM of each primer and 2 U of Taq polymerase (Gibco/BRL). One hundred ng of cDNA was used for PCR amplification, and all of the genes were amplified with multiple cycle numbers (20 to 35 cycles) to determine appropriate conditions to obtain semi-quantitative differences in their expression levels. GAPDH PCR (25 and 28 cycles) was performed to ensure cDNA quality and loading accuracy. Amplification primer pairs were as shown in Table 4 (SEQ ID NOS: 149 to 296.

[1] = colorectal cancer cells and/or gastric cancer cells

| SMILES | expression of FOLH1 and PCDH8 (silent genes) (CRC cell lines; CRC cell lines) | basal expression of the hypermethylated SFRP genes (the three other than SFRP1) (CRC cell lines; CRC cell lines, DAC treatment) | KIAA0786 expression (not basally expressed despite a lack of methylation) (CRC cell lines; SW480 cells) | expression of Group 1a genes lacking basal expression in the methylated cell lines (CRC cell lines; series of 8 CRC cell lines, incubation with DAC) | expression of Group 2 genes (n=23) (RKO cells) | expression of Group 1 genes (n=51) (RKO cells) | basal level of expression of HOXA1, GRO3 and DLX7 (RKO cells; [1]) | expression of POR1, MBNL, TRADD, PDIP, RAD23B, RPL13, GNAI2, PPP1R21A, FPGT and TRIM32 (RKO cells; [1]) | expression of PTGS2, CDKN2A, TIMP3, S100A10, SFRP1, CXX1, SEZZ6L, KIAA0786, TIMP2, PCDH8, FOLH1 and SNRPN (no detectable basal expression) (RKO cells; [1]) |
| --- | --- | --- | --- | --- | --- | --- | --- | --- | --- |
| Nc1ncn([C@H]2C[C@H](O)[C@@H](CO)O2)c(=O)n1 [DAC, 5-aza-2′-deoxycytidine] | re-expression | restored | reactivated | restored | variable initial expression or response | minimal increase in expression | increased | vary among genes | re-expressed |
| CC(/C=C/C(=O)NO)=C\[C@@H](C)C(=O)c1ccc(N(C)C)cc1 [TSA, trichostatin A] |  |  |  |  | up-regulation | no change in expression | not | up-regulated |  |
